Laboratory results taken from patent US10077237B2 (Sanofi, priority 2013, dated 2018).
pEC50: −log10 of the molar value. Values joined by “and” are separate entries in the source; they are usually repeats but may differ in a detail not shown here. Equal entries are not always repeated. Structures can show the parent of a compound that is named as a salt.

Target: T1, recombinant human AMPK complex, containing α2β1γ2 (Homo sapiens, UniProt P54646+Q9Y478)
T1 construct: hsAMPKα2-552-His, hsAMPKβ1-2-270 and hsAMPKγ-2-569 respectively; hsAMPKβ1-2-270; hsAMPKγ-2-569; His (C); made in house; host or cells: Spodoptera frugiperda Sf21 (baculovirus)
T1 sequence (P54646 2-552): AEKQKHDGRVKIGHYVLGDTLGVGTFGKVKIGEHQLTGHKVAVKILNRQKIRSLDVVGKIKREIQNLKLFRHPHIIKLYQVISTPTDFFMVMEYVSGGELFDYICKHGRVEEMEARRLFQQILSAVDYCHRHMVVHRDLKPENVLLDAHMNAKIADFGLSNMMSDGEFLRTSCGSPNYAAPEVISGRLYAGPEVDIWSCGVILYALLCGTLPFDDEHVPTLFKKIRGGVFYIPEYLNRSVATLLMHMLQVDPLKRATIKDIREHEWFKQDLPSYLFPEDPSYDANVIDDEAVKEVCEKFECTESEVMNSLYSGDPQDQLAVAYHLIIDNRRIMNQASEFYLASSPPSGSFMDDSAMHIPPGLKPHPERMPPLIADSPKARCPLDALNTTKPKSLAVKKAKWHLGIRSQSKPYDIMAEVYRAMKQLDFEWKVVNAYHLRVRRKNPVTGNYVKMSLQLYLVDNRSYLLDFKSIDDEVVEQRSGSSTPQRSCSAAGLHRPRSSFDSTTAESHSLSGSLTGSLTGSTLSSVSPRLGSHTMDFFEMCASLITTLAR
T1 sequence (Q9Y478 2-270): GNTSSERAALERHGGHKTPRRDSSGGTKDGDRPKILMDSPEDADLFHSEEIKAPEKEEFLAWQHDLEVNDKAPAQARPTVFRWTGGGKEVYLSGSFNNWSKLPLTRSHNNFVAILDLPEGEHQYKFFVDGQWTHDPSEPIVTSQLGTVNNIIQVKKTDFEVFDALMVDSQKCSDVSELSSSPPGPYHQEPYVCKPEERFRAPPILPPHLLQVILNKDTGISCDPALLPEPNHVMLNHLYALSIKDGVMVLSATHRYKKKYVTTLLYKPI
T1 sequence (Q9UGJ0 2-569 partner limits assumed): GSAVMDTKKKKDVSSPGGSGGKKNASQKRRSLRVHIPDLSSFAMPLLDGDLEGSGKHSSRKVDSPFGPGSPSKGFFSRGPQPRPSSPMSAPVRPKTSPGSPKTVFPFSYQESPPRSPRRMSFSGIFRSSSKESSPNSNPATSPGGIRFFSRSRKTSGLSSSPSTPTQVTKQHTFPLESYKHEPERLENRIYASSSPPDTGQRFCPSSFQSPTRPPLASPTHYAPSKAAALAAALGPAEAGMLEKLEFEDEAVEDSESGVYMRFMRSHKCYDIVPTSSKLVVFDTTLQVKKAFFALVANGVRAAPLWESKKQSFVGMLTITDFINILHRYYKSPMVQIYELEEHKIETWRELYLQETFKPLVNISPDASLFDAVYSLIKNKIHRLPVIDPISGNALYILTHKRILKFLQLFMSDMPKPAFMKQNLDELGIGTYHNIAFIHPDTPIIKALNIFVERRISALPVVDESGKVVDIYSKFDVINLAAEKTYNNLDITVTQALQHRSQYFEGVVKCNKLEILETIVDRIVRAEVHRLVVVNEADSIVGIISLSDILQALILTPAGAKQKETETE
Test: AMPK in vitro activation assay (HTRF)
Assay type: biochemical
Details: for pEC50: HTRF, recombinant human α2β1γ2 AMPK, 200 μM ATP, biotinylated ACC-CREBp peptide, repeat determinations on separate lines
Experimental: The recombinant human AMPK complex, containing α2β1γ2 was obtained from baculovirus expression system and generated by cotransfection in Spodoptera frugiperda 21 (Sf21). […] were produced in serum free medium (SF900 II, Invitrogen) for 82 hours after a triple infection at a multiplicity of infection (M.O.I.) of 0.05, 0.06 and 0.045 for hsAMPKα2-552-His, hsAMPKβ1-2-270 and hsAMPKγ-2-569 respectively. Cells were harvested by centrifugation at 1,000×g for 10 minutes at 4° C. and stored at −80° C. The insect cell pellet from 8 liters of culture was resuspended and homogenized in 580 ml of lysis buffer (20 mM Hepes pH 7.5, 150 mM NaCl, 10 mM imidazole, 50 mM NaF, 10% Glycerol and supplemented with EDTA free proteases inhibitor cocktail Roche). The AMPK complex was partially purified using an affinity chromatography under a Ni-NTA Agarose column equilibrated in the lysis buffer and eluted with a gradient (0 to 400 mM) of Imidazol.
A homogeneous time-resolved fluorescence (HTRF) assay was used (Li et al, Anal. Biochem. (2003) 321, 151-156) to identify compounds with stimulating activity for the recombinant human AMPK. Enzyme reaction was performed into a 96-well microtiter plate. First, 20 μL of test compounds in 0.5% DMSO were dispensed followed by 10 μL of protein in 50 mM HEPES buffer at pH 7.0, 100 mM NaCl, 5 mM MgCl2, 0.01% BSA, 0.8 mM DTT. After, 30 min incubation at room temperature, the reaction was initiated by the addition of 10 μL of a solution containing 200 μM of ATP as donor substrate, 2 μM or 0.08 μM of biotinylated ACC-CREBp peptide (PolyPeptide) as acceptor. Plates were then incubated 45 min at 37° C. The reaction was terminated by the addition of 40 μl detection mixture containing Eu^3+ cryptate-conjugated anti-pS^133-CREB antibody and streptavidine-XL665 (CisBio). Plates were further incubated for 2 h30 at room temperature. The fluorescence signal was measured using an Envision multireader (Perkin Elmer). The non-specific signal was obtained without substrates. Potentiation of AMPK activity was expressed as a percent over the basal signal (without compound) from which an EC50 value was determined.
The EC50 of a graded dose response curve represents the concentration of a compound where 50% of its maximal effect is observed.

[1] = potentiation of AMPK activity as percent over the basal signal (without compound)

Structure (SMILES)	pEC50	Emax [1]	α2β1γ2 AMPK Emax [1]
Cc1nnc(C(O)=C2C(=O)Nc3cc(Cl)c(-c4ccc(N5CCOCC5)cc4)cc32)o1 [Compound 16, 6-Chloro-3-[1-hydroxy-1-(5-methyl-[1,3,4]oxadiazol-2-yl)-methylidene]-5-(4-morpholin-4-yl-phenyl)-1,3-dihydro-indol-2-one]	8.05	268%	–
COc1cc(C(O)=C2C(=O)Nc3cc(F)c(-c4ccc(C5(CO)CC5)cc4)cc32)on1 [Compound 118, 6-fluoro-3-[hydroxy-(3-methoxyisoxazol-5-yl)methylene]-5-[4-[1-(hydroxymethyl)cyclopropyl]phenyl]indolin-2-one]	9.30	133%	–
COc1cccc(-c2ccc(-c3cc4c(cc3Cl)NC(=O)C4=C(O)c3cnc(C)s3)cc2)c1O [Compound 51, 6-Chloro-5-(2′-hydroxy-3′-methoxy-biphenyl-4-yl)-3-[1-hydroxy-1-(2-methyl-thiazol-5-yl)-methylidene]-1,3-dihydro-indol-2-one]	7.96	129%	–
COc1cc(C(O)=C2C(=O)Nc3cc(F)c(-c4ccc(-c5cccc(OC)c5O)cc4)cc32)on1 [Compound 71, 6-Fluoro-5-(2′-hydroxy-3′-methoxy-biphenyl-4-yl)-3-[1-hydroxy-1-(3-methoxy-isoxazol-5-yl)methylidene]-1,3-dihydro-indol-2-one]	8.70	158%	–
COc1cc(-c2cc3c(cc2Cl)NC(=O)C3=C(O)c2cc(C)no2)ccc1O [Compound 81, 6-chloro-5-(4-hydroxy-3-methoxy-phenyl)-3-[hydroxy-(3-methylisoxazol-5-yl)methylene]indolin-2-one]	6.11	136%	–
COc1ccc(C(O)=C2C(=O)Nc3cc(Cl)c(-c4ccc(N5CCOCC5)cc4)cc32)nc1 [Compound 140, 6-chloro-3-[hydroxy-(5-methoxy-2-pyridyl)methylene]-5-(4-morpholinophenyl)indolin-2-one]	7.68	227%	–
Cc1cc(C(O)=C2C(=O)Nc3cc(Cl)c(-c4ccc(F)cc4)cc32)on1 [Compound 30, 6-Chloro-5-(4-fluoro-phenyl)-3-[1-hydroxy-1-(3-methyl-isoxazol-5-yl)-methylidene]-1,3-dihydro-indol-2-one]	6.62	108%	–
O=C1Nc2cc(Cl)c(-c3ccc(N4CCOCC4)cc3)cc2C1=C(O)c1cc(C2CC2)no1 [Compound 87, 6-chloro-3-[(3-cyclopropylisoxazol-5-yl)hydroxy-methylene]-5-(4-morpholinophenyl)indolin-2-one]	9.30 and 9.22	–	–
CN1CCC(c2ccc(-c3cc4c(cc3Cl)NC(=O)C4=C(O)c3cc(F)cc(F)c3)cc2)C1 (stereo not shown) [Compound 150, 6-chloro-3-[(3,5-difluorophenyl)hydroxy-methylene]-5-[4-(1-methylpyrrolidin-3-yl)phenyl]indolin-2-one hydrochloride]	7.85	137%	–
COc1cc(C(O)=C2C(=O)Nc3cc(Cl)c(-c4ccc5c(ccn5C)c4)cc32)on1 [Compound 154, 6-chloro-3-[hydroxy-(3-methoxyisoxazol-5-yl)methylene]-5-(1-methylindol-5-yl)indolin-2-one]	9.15	256%	–
COc1cccc(-c2ccc(-c3cc4c(cc3Cl)NC(=O)C4=C(O)c3cc(C)no3)cc2)c1O [Compound 5, 6-Chloro-5-(2′-hydroxy-3′-methoxy-biphenyl-4-yl)-3-[1-hydroxy-1-(3-methyl-isoxazol-5-yl)-meth-ylidene]-1,3-dihydro-indol-2-one]	8.40	193%	–
O=C1Nc2cc(Cl)c(-c3ccc(C4(CO)CC4)cc3F)cc2C1=C(O)c1cc(C2CC2)no1 [Compound 113, 6-chloro-3-[(3-cyclopropylisoxazol-5-yl)hydroxy-methylene]-5-[2-fluoro-4-[1-(hydroxymethyl)cyclopropyl]phenyl]indolin-2-one]	9.22	126%	–
Cc1ncc(C(O)=C2C(=O)Nc3cc(Cl)c(-c4ccc(C5(CO)CC5)cc4)cc32)s1 [Compound 75, 6-Chloro-5-[4-(1-hydroxymethyl-cyclopropyl)phenyl]-3-[1-hydroxy-1-(2-methyl-thiazol-5-yl)methylidene]-1,3-dihydro-indol-2-one]	9.00	142%	–
Cc1cc(C(O)=C2C(=O)Nc3cc(Cl)c(-c4ccc(Cl)cc4)cc32)on1 [Compound 63, 6-Chloro-5-(4-chloro-phenyl)-3-[1-hydroxy-1-(3-methyl-isoxazol-5-yl)-methylidene]-1,3-dihydro-indol-2-one]	5.40	134%	–
O=C1Nc2cc(Cl)c(-c3ccc(C4(CO)CC4)cc3)cc2C1=C(O)c1cc2cc(Cl)ccc2o1 [Compound 170, 6-chloro-3-[(5-chlorobenzofuran-2-yl)hydroxy-methylene]-5-[4-[1-(hydroxymethyl)cyclopropyl]phenyl]indolin-2-one]	8.22	181%	–
Cc1[nH]c(=O)sc1C(O)=C1C(=O)Nc2cc(Cl)c(-c3ccc(N4CCOCC4)cc3)cc21 [Compound 107, 5-[-[6-chloro-5-(4-morpholinophenyl)-2-oxo-indolin-3-ylidene]-hydroxy-methyl]-4-methyl-3H-thiazol-2-one]	7.44	104%	–
Cc1cc(C([O-])=C2C(=O)Nc3cc(Cl)c(-c4ccc(N(C)C)cc4)cc32)on1.[Na+] [Compound 2, 6-Chloro-5-(4-dimethylamino-phenyl)-3-[1-hydroxy-1-(3-methyl-isoxazol-5-yl)-methylidene]-1,3-dihydro-indol-2-one, sodium salt]	7.28	–	(183 +/− 51) %
Cc1cc(C(O)=C2C(=O)Nc3cc(Cl)c(-c4ccc(C5(CO)CC5)cc4)cc32)on1 [Compound 6, 6-Chloro-5-[4-(1-hydroxymethyl-cyclopropyl)-phenyl]-3-[1-hydroxy-1-(3-methyl-isoxazol-5-yl)-methylidene]-1,3-dihydro-indol-2-one]	8.15	186%	–
COc1cc(C(O)=C2C(=O)Nc3cc(Cl)c(-c4ccc(C5(CO)CC5)cc4F)cc32)on1 [Compound 111, 6-chloro-5-[2-fluoro-4-[1-(hydroxymethyl)cyclopropyl]phenyl]-3-[hydroxy-(3-methoxyisoxazol-5-yl)methylene]indolin-2-one]	9.00	175%	–
COc1cc(C(O)=C2C(=O)Nc3cc(Cl)c(-c4ccc(OC5CCOCC5)cc4)cc32)on1 [Compound 128, 6-chloro-3-[hydroxy-(3-methoxyisoxazol-5-yl)methylene]-5-(4-tetrahydropyran-4-yloxyphenyl)indolin-2-one]	7.28	288%	–
COc1ccc(C(O)=C2C(=O)Nc3cc(F)c(-c4ccc(C5(CO)CC5)cc4)cc32)cc1F [Compound 125, 6-fluoro-3-[(3-fluoro-4-methoxy-phenyl)hydroxy-methylene]-5-[4-[1-(hydroxymethyl)cyclopropyl]phenyl]indolin-2-one]	9.70	230%	–
O=C1Nc2cc(Cl)c(-c3ccc(N4CCOCC4)cc3)cc2C1=C(O)c1cccnc1 [Compound 25, 6-Chloro-3-[1-hydroxy-1-pyridin-3-yl-methylidene]-5-(4-morpholin-4-yl-phenyl)-1,3-dihydro-indol-2-one]	6.49	146%	–
O=C1Nc2cc(Cl)c(-c3ccc(C4CC4)cc3)cc2C1=C(O)c1cccc(F)c1 [Compound 26, 6-Chloro-5-(4-cyclopropyl-phenyl)-3-[1-(3-fluoro-phenyl)-1-hydroxy-methylidene]-1,3-dihydro-indol-2-one]	6.36	153%	–
O=C1Nc2cc(Cl)c(-c3ccc(C4(CO)CC4)cc3)cc2C1=C(O)c1ccc(F)cc1F [Compound 141, 6-chloro-3-[(2,4-difluorophenyl)hydroxy-methylene]-5-[4-[1-(hydroxymethyl)cyclopropyl]phenyl]indolin-2-one]	8.70	229%	–
COc1ccc(C(O)=C2C(=O)Nc3cc(Cl)c(-c4ccc(N5CCOCC5)cc4)cc32)c(F)c1F [Compound 98, 6-chloro-3-[(2,3-difluoro-4-methoxy-phenyl)hydroxy-methylene]-5-(4-morpholinophenyl)indolin-2-one]	8.70	191%	–
